According to US11020399B2, “Intermediates useful in the synthesis of compounds as modulators of protein kinases” (Rhizen Pharmaceuticals SA, priority 2011, dated 2021):
Where a name gives a salt, the structure may show the parent alone.

How the values were obtained:
PI3kγ = PI3kγ (Homo sapiens, UniProt P48736); test: Fluorescent (HTRF) determination of PI3 kinase enzyme activity, PI3Kγ; assay type: biochemical; conditions: for % inhibition (PI3kγ) 100 nM / inhibition at 0.1 µM: 100 nM (Examples 60-137); for % inhibition (PI3kγ) 100 nM: 0.1 µM; for inhibition at 0.3 µM: 300 nM (Examples 1-59)
Chain of PI3kγ (P48736 whole entry, canonical isoform): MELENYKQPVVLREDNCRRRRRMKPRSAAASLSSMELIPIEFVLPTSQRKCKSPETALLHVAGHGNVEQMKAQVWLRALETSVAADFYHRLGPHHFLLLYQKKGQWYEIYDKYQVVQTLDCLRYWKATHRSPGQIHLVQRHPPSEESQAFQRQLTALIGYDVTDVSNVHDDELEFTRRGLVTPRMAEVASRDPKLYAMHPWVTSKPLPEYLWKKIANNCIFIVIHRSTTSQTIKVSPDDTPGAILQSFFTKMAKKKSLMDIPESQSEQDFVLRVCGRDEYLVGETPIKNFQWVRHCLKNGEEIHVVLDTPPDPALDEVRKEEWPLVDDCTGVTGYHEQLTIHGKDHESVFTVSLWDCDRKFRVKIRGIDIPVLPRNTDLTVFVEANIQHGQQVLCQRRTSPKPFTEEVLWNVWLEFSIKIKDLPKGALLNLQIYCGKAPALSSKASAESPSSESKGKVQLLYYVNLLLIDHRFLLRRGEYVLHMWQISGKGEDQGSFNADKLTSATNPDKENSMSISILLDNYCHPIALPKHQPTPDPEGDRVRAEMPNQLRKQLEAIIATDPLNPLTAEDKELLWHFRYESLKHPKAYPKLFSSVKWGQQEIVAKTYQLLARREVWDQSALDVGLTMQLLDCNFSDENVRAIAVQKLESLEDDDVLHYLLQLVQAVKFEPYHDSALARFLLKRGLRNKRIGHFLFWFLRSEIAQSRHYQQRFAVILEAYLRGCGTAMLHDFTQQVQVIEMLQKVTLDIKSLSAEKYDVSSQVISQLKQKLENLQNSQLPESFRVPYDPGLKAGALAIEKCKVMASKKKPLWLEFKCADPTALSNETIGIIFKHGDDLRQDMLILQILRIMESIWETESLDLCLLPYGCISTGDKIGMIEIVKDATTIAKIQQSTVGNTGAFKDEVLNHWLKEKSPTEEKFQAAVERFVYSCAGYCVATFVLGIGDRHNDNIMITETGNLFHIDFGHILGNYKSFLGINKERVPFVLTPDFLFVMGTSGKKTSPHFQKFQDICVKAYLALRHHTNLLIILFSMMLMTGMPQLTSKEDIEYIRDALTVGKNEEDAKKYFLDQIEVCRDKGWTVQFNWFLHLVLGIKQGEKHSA
Outline: (§1)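 Compounds tested at 1 μM on α and β isoforms and at 0.3 or 0.1 μM on γ and δ, with percent inhibition from blank and enzyme controls, plus IC50 fits. Room-temperature reaction: 10 min enzyme–compound preincubation in MgCl2/DTT buffer with 1.38 μM PIP2, then 30 min after 400 μM ATP addition; PIP3 read by HTRF (665/620 nm).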

PI3kδ = PI3kδ (Homo sapiens, UniProt O00329); test: Fluorescent (HTRF) determination of PI3 kinase enzyme activity, PI3Kδ; assay type: biochemical; conditions: for inhibition at 0.3 µM: 300 nM (Examples 1-59)
Chain of PI3kδ (O00329 whole entry): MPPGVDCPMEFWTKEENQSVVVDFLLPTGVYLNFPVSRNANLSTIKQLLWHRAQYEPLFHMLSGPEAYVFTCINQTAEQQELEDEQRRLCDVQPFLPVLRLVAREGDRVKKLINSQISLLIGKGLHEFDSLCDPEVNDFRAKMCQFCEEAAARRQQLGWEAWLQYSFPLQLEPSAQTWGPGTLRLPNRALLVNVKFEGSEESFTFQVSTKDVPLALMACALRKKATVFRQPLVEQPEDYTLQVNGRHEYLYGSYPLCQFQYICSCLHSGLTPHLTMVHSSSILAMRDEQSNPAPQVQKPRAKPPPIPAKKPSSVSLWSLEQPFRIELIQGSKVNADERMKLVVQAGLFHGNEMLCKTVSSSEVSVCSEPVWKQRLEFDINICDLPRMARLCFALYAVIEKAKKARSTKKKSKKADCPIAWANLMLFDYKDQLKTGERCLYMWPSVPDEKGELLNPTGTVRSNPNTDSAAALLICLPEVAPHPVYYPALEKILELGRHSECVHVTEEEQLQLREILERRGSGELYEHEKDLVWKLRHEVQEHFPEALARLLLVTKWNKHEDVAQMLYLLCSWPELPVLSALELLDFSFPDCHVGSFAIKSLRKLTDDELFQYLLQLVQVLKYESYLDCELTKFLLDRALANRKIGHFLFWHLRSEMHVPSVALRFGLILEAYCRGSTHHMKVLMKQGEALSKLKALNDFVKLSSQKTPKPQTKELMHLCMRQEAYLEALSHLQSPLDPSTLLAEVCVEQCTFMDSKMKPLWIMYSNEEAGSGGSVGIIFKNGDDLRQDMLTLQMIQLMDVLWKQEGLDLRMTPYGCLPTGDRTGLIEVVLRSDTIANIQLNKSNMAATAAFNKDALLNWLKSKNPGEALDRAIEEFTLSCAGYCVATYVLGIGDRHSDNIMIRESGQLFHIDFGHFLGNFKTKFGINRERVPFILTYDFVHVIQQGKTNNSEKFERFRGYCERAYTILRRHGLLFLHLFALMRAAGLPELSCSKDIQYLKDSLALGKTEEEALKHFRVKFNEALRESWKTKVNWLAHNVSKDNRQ
Chain of PI3kδ (P27986 whole entry partner): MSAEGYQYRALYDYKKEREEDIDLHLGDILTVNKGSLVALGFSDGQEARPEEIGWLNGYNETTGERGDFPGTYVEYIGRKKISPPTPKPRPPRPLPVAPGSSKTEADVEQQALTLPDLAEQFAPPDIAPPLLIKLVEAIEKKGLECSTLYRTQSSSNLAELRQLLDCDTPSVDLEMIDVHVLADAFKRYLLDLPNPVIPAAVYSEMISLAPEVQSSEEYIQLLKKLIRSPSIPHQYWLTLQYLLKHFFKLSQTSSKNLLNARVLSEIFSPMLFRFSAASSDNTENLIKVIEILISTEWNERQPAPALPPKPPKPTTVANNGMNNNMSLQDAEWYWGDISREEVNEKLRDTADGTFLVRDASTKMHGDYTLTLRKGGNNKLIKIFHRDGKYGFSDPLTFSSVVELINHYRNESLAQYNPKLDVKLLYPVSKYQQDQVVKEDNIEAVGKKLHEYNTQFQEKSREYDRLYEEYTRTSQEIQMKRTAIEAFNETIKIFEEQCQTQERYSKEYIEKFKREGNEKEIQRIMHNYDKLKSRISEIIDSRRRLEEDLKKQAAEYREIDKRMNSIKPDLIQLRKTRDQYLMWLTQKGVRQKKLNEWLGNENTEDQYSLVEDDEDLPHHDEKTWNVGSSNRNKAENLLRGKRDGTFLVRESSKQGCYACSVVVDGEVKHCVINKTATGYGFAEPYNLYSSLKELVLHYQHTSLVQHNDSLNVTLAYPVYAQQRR
Outline: as §1

PI3kβ = PI3kβ (Homo sapiens, UniProt P42338); test: Fluorescent (HTRF) determination of PI3 kinase enzyme activity, PI3Kβ; assay type: biochemical; conditions: 1 uM
Chain of PI3kβ (P42338 whole entry): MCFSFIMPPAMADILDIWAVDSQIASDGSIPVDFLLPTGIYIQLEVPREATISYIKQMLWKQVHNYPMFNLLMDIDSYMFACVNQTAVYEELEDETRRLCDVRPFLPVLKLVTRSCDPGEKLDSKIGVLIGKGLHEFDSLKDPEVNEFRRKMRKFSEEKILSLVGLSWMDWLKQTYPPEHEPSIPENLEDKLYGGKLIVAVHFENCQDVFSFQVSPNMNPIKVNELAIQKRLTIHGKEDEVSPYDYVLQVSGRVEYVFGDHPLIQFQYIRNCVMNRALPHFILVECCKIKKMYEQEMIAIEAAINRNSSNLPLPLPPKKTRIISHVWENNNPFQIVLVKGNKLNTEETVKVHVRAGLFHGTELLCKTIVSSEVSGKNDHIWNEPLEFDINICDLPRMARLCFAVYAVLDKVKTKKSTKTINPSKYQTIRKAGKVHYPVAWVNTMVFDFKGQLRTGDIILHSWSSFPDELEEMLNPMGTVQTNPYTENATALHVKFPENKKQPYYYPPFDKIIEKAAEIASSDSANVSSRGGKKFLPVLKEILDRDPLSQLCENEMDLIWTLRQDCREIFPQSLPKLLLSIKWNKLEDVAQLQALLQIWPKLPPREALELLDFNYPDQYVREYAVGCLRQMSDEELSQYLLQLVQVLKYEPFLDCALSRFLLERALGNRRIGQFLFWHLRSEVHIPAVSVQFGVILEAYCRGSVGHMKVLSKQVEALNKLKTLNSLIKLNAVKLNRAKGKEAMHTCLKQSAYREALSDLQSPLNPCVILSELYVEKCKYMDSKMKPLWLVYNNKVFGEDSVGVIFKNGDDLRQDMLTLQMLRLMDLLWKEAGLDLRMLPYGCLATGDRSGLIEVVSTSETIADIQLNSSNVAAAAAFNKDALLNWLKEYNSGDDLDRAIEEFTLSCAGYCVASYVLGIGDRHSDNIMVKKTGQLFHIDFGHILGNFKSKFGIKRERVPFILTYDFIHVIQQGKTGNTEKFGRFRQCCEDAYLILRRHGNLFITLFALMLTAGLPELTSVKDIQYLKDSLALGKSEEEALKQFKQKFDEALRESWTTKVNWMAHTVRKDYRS
Chain of PI3kβ (P27986 whole entry partner): as the sequence (P27986 whole entry partner) above
Outline: as §1

PI3kα = PI3kα (Homo sapiens, UniProt P42336); test: Fluorescent (HTRF) determination of PI3 kinase enzyme activity, PI3Kα; assay type: biochemical; conditions: 1 uM
Chain of PI3kα (P42336 whole entry): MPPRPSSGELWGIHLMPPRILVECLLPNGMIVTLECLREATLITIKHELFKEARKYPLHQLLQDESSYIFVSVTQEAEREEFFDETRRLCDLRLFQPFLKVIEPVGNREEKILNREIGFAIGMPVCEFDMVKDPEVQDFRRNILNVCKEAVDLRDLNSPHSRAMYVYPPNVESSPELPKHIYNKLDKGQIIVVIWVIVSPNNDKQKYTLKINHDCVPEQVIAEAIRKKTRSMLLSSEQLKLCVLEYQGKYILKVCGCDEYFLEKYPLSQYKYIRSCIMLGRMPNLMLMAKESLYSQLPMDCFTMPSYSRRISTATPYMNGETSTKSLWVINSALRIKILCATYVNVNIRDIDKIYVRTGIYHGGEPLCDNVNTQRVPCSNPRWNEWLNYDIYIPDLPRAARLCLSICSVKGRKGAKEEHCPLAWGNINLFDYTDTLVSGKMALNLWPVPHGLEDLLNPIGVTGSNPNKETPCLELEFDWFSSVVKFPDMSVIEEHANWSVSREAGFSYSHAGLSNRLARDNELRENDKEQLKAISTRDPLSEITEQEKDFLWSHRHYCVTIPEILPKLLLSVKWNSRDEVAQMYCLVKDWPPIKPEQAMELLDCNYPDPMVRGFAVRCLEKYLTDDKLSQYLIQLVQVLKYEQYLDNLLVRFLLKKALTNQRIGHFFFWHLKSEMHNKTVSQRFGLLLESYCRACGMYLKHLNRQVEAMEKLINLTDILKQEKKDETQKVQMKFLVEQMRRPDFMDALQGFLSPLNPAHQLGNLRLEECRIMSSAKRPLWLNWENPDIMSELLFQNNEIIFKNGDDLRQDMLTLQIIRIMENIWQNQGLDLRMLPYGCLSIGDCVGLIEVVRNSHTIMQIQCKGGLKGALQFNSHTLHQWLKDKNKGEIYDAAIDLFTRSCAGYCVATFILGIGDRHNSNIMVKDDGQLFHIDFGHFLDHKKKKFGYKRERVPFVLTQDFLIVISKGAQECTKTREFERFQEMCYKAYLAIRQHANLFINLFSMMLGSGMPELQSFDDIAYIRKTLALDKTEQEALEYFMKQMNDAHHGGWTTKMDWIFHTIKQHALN
Chain of PI3kα (P27986 whole entry partner): as the sequence (P27986 whole entry partner) above
Outline: as §1

Row | SMILES | melting point | inhibition at 0.1 µM (PI3kγ) | inhibition at 0.1 µM (PI3kδ; 100 nM (Examples 60-137)) | other results
1 | CC(c1oc2cccc(F)c2c(=O)c1-c1cccc(F)c1)n1cnc2c(N)nc(F)nc21 (centres unmarked) (as salt: potassium) [Example 106, 2-(1-(6-amino-2-fluoro-9H-purin-9-yl)ethyl)-5-fluoro-3-(3-fluorophenyl)-4H-chromen-4-one] | 255 to 258 °C |  |  | 
2 | CNc1ncnc2c1ncn2C(C)c1oc2cccc(F)c2c(=O)c1-c1cccc(F)c1 (centres unmarked) (as salt: potassium) [Example 111, 5-fluoro-3-(3-fluorophenyl)-2-(1-(6-(methylamino)-9H-purin-9-yl)ethyl)-4H-chromen-4-one] | 207 to 209 °C |  |  | 
3 | CC(c1oc2cccc(F)c2c(=O)c1-c1cccc(F)c1)n1cnc2c(N3CCOCC3)ncnc21 (centres unmarked) (as salt: potassium) [Example 119, 5-fluoro-3-(3-fluorophenyl)-2-(1-(6-morpholino-9H-purin-9-yl)ethyl)-4H-chromen-4-one] | 239 to 241 °C |  |  | 
4 | Cc1cc(-c2nn(C(C)c3oc4cccc(F)c4c(=O)c3-c3cccc(F)c3)c3ncnc(N)c23)ccc1OC(C)C (centres unmarked) (as salt: sodium) [Example 50, 2-(1-(4-amino-3-(4-isopropoxy-3-methylphenyl)-1H-pyrazolo[3,4-d]pyrimidin-1-yl)ethyl)-5-fluoro-3-(3-fluorophenyl)-4H-chromen-4-one] | 185 to 188 °C |  |  | 
5 | CC(C)Oc1ccc(-c2nn(C(C)c3oc4cccc(F)c4c(=O)c3-c3cccc(F)c3)c3ncnc(N4CCOCC4)c23)cc1F (racemic) [Example 116, (S)/(R)-5-fluoro-2-(1-(3-(3-fluoro-4-isopropoxyphenyl)-4-morpholino-1H-pyrazolo[3,4-d]pyrimidin-1-yl)ethyl)-3-(3-fluorophenyl)-4H-chromen-4-one] | 136 to 138 °C |  |  | % inhibition (PI3kγ) 100 nM (PI3kγ): D (D=0 to 25%); % inhibition (PI3kδ) 100 nM (PI3kδ; 100 nM (Examples 60-137), 0.1 µM): D (D=0 to 25%)
6 | C[C@H](Nc1nc(F)nc2[nH]cnc12)c1oc2cccc(F)c2c(=O)c1-c1cccc(F)c1 (racemic) [Example 136, (S)/(R)-5-fluoro-2-(1-(2-fluoro-9H-purin-6-ylamino)ethyl)-3-(3-fluorophenyl)-4H-chromen-4-one] | 183 to 186 °C | 25 to 50% | 25 to 50% | 
7 | COc1nc(N[C@@H](C)c2oc3cccc(F)c3c(=O)c2-c2cccc(F)c2)c2nc[nH]c2n1 (single isomer, unassigned) [Example 134] | 186 to 189 °C | 0 to 25% | 25 to 50% | 
8 | COc1nc(N[C@H](C)c2oc3cccc(F)c3c(=O)c2-c2cccc(F)c2)c2nc[nH]c2n1 (single isomer, unassigned) [Example 135] | 219 to 222 °C | 25 to 50% | 25 to 50% | 
9 | C[C@H](c1oc2cccc(F)c2c(=O)c1-c1cccc(F)c1)n1ncc2c(N)ncnc21 [Example 16b, (−)-2-(1-(4-amino-1H-pyrazolo[3,4-d]pyrimidin-1-yl)ethyl)-5-fluoro-3-(3-fluorophenyl)-4H-chromen-4-one] | 198 to 201 °C |  |  | 
10 | CC(c1oc2cccc(F)c2c(=O)c1-c1cccc(F)c1)n1nc(-c2ccc(OC(F)(F)F)c(F)c2)c2c(N)ncnc21 (centres unmarked) [Example 45, 2-(1-(4-amino-3-(3-fluoro-4-(trifluoromethoxy)phenyl)-1H-pyrazolo[3,4-d]pyrimidin-1-yl)ethyl)-5-fluoro-3-(3-fluorophenyl)-4H-chromen-4-one] | 247 to 249 °C |  |  | inhibition at 0.3 µM (PI3kγ): 25 to 50%; inhibition at 0.3 µM (PI3kδ): 50 to 75%
11 | CC(c1oc2cccc(F)c2c(=O)c1-c1cccc(F)c1)n1nc(N2CCCC2)c2c(N)ncnc21 (centres unmarked) [Example 47, 2-(1-(4-amino-3-(pyrrolidin-1-yl)-1H-pyrazolo[3,4-d]pyrimidin-1-yl)ethyl)-5-fluoro-3-(3-fluorophenyl)-4H-chromen-4-one] | 203 to 205 °C |  |  | inhibition at 0.3 µM (PI3kγ): 0 to 25%; inhibition at 0.3 µM (PI3kδ): 0 to 25%
12 | CC(c1oc2cccc(F)c2c(=O)c1-c1cccc(F)c1)n1nc(-c2ccc(C3=NCCCO3)cc2)c2c(N)ncnc21 (centres unmarked) [Example 51, 2-(1-(4-amino-3-(4-(5,6-dihydro-4H-1,3-oxazin-2-yl)phenyl)-1H-pyrazolo[3,4-d]pyrimidin-1-yl)ethyl)-5-fluoro-3-(3-fluorophenyl)-4H-chromen-4-one] | 228 to 230 °C |  |  | inhibition at 0.3 µM (PI3kγ): 50 to 75%; inhibition at 0.3 µM (PI3kδ): 25 to 50%
13 | CC(C)NC(=O)c1ccc(-c2nn(C(C)c3oc4cccc(F)c4c(=O)c3-c3cccc(F)c3)c3ncnc(N)c23)cc1F (centres unmarked) [Example 53, 4-(4-amino-1-(1-(5-fluoro-3-(3-fluorophenyl)-4-oxo-4H-chromen-2-yl)ethyl)-1H-pyrazolo[3,4-d]pyrimidin-3-yl)-2-fluoro-N-isopropylbenzamide] | 254 to 257 °C |  |  | inhibition at 0.3 µM (PI3kγ): 50 to 75%; inhibition at 0.3 µM (PI3kδ): 0 to 25%
14 | CC(c1oc2cccc(F)c2c(=O)c1-c1cccc(F)c1)n1nc(-c2ccc(CNS(C)(=O)=O)cc2)c2c(N)ncnc21 (centres unmarked) [Example 55, N-(4-(4-amino-1-(1-(5-fluoro-3-(3-fluorophenyl)-4-oxo-4H-chromen-2-yl)ethyl)-1H-pyrazolo[3,4-d]pyrimidin-3-yl)benzyl)methanesulfonamide] | 252 to 255 °C |  |  | inhibition at 0.3 µM (PI3kγ): 50 to 75%; inhibition at 0.3 µM (PI3kδ): 25 to 50%
15 | CC(c1oc2cccc(F)c2c(=O)c1-c1cccc(F)c1)n1nc(-c2ccc(S(=O)(=O)NC3CC3)cc2)c2c(N)ncnc21 (centres unmarked) [Example 57, 4-(4-amino-1-(1-(5-fluoro-3-(3-fluorophenyl)-4-oxo-4H-chromen-2-yl)ethyl)-1H-pyrazolo[3,4-d]pyrimidin-3-yl)-N-cyclopropylbenzenesulfonamide] | 225 to 228 °C |  |  | inhibition at 0.3 µM (PI3kγ): 50 to 75%; inhibition at 0.3 µM (PI3kδ): 0 to 25%
16 | COc1c(C)cc(-c2nn(C(C)c3oc4cccc(F)c4c(=O)c3-c3cccc(F)c3)c3ncnc(N)c23)cc1C (centres unmarked) [Example 71, 2-(1-(4-amino-3-(4-methoxy-3,5-dimethylphenyl)-1H-pyrazolo[3,4-d]pyrimidin-1-yl)ethyl)-5-fluoro-3-(3-fluorophenyl)-4H-chromen-4-one] | 232 to 235 °C | 25 to 50% | 0 to 25% | 
17 | COCc1ccc(-c2nn(C(C)c3oc4cccc(F)c4c(=O)c3-c3cccc(F)c3)c3ncnc(N)c23)cc1 (centres unmarked) [Example 72, 2-(1-(4-amino-3-(4-(methoxymethyl)phenyl)-1H-pyrazolo[3,4-d]pyrimidin-1-yl)ethyl)-5-fluoro-3-(3-fluorophenyl)-4H-chromen-4-one] | 204 to 207 °C | 25 to 50% | 0 to 25% | 
18 | CC(c1oc2cccc(F)c2c(=O)c1-c1cccc(F)c1)n1nc(-c2ccc3nccn3c2)c2c(N)ncnc21 (centres unmarked) [Example 73, 2-(1-(4-amino-3-(imidazo[1,2-a]pyridin-6-yl)-1H-pyrazolo[3,4-d]pyrimidin-1-yl)ethyl)-5-fluoro-3-(3-fluorophenyl)-4H-chromen-4-one] | 317 to 320 °C | 25 to 50% | 25 to 50% | 
19 | Cc1nc(C)c(-c2nn(C(C)c3oc4cccc(F)c4c(=O)c3-c3cccc(F)c3)c3ncnc(N)c23)s1 (centres unmarked) [Example 75, 2-(1-(4-amino-3-(2,4-dimethylthiazol-5-yl)-1H-pyrazolo[3,4-d]pyrimidin-1-yl)ethyl)-5-fluoro-3-(3-fluorophenyl)-4H-chromen-4-one] | 252 to 255 °C | 0 to 25% | 25 to 50% | 
20 | CC(c1oc2cccc(F)c2c(=O)c1-c1cccc(F)c1)n1nc(-c2ccc(N3CCOCC3)c(Cl)c2)c2c(N)ncnc21 (centres unmarked) [Example 113, 2-(1-(4-amino-3-(3-chloro-4-morpholinophenyl)-1H-pyrazolo[3,4-d]pyrimidin-1-yl)ethyl)-5-fluoro-3-(3-fluorophenyl)-4H-chromen-4-one] |  |  | 50 to 75% | IC50 (PI3kγ): 50 to 100 nM; % inhibition (PI3kγ) 100 nM (PI3kγ): B (B=>50 to 75%); % inhibition (PI3kβ) 1 uM (PI3kβ): D (D=0 to 25%); % inhibition (PI3kα) 1 uM (PI3kα): C (C=>25 to 50%); IC50 (PI3kδ): ≤ 50 nM
21 | Cc1nc2ccc(-c3nn(C(C)c4oc5cccc(F)c5c(=O)c4-c4cccc(F)c4)c4ncnc(N)c34)cc2o1 (centres unmarked) [Example 118, 2-(1-(4-amino-3-(2-methylbenzo[d]oxazol-6-yl)-1H-pyrazolo[3,4-d]pyrimidin-1-yl)ethyl)-5-fluoro-3-(3-fluorophenyl)-4H-chromen-4-one] |  | 25 to 50% | 25 to 50% | inhibition at 1 µM (PI3kβ): 0 to 25%; inhibition at 1 µM (PI3kα): 25 to 50%
22 | CC(=O)c1ccc(-c2nn(C(C)c3oc4cccc(F)c4c(=O)c3-c3cccc(F)c3)c3ncnc(N)c23)cc1F (centres unmarked) [Example 124, 2-(1-(3-(4-acetyl-3-fluorophenyl)-4-amino-1H-pyrazolo[3,4-d]pyrimidin-1-yl)ethyl)-5-fluoro-3-(3-fluorophenyl)-4H-chromen-4-one] |  | 0 to 25% | 25 to 50% | inhibition at 1 µM (PI3kβ): 0 to 25%; inhibition at 1 µM (PI3kα): 25 to 50%
23 | CC(c1oc2cccc(F)c2c(=O)c1-c1cccc(F)c1)n1nc(-c2cccc(NS(C)(=O)=O)c2)c2c(N)ncnc21 (centres unmarked) [Example 128, N-(3-(4-amino-1-(1-(5-fluoro-3-(3-fluorophenyl)-4-oxo-4H-chromen-2-yl)ethyl)-1H-pyrazolo[3,4-d]pyrimidin-3-yl)phenyl)methanesulfonamide] |  | 25 to 50% | 50 to 75% | IC50 (PI3kγ): 50 to 100 nM; inhibition at 1 µM (PI3kβ): 50 to 75%; inhibition at 1 µM (PI3kα): 25 to 50%; IC50 (PI3kδ): 50 to 100 nM
24 | Cc1ccccc1-c1c(C(C)Nc2ncnc3[nH]cnc23)oc2cccc(F)c2c1=O (centres unmarked) [Example 138, 2-(1-(9H-purin-6-ylamino)ethyl)-5-fluoro-3-o-tolyl-4H-chromen-4-one] | 275 to 277 °C |  |  | 
